# Source: PMC11554605, “Pharmacological differences between human and mouse P2X4 receptor explored using old and new tools” (Purinergic Signalling, 2024)
# “Also recorded” adds a separate entry of the source. Where two headings read alike, the source gives them in different places.
# Legend:
# mouse P2X4 [1] = molecular target: T1, mouse P2X4 (Mus musculus, UniProt Q9JJX6); experiment: Intracellular Ca2+ assay, antagonists against Ca2+ responses evoked by EC80 ATP (1.5 µM) in 1321N1 cells expressing mouse P2X4; assay type: cell-based
# T1 construct: expressed in transfected cells
# T1 sequence (Q9JJX6 1-388): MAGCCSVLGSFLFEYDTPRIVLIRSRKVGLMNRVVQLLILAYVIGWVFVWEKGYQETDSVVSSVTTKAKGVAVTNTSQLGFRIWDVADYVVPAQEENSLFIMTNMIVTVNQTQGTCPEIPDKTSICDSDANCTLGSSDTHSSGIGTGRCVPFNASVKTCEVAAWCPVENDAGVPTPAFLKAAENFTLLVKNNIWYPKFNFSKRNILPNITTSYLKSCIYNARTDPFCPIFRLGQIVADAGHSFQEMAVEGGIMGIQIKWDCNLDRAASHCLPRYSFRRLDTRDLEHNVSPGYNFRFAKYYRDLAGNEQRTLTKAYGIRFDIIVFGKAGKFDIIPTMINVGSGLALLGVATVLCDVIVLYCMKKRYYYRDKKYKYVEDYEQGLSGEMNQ
# rat P2X4 = details: cited from earlier work
# human P2X4 [2] = molecular target: T2, human P2X4 (Homo sapiens, UniProt Q99571); experiment: Intracellular Ca2+ assay, antagonists against Ca2+ responses evoked by EC80 ATP (1.5 µM) in 1321N1 cells expressing human P2X4; assay type: cell-based
# T2 construct: expressed in transfected cells
# T2 sequence (Q99571 1-388): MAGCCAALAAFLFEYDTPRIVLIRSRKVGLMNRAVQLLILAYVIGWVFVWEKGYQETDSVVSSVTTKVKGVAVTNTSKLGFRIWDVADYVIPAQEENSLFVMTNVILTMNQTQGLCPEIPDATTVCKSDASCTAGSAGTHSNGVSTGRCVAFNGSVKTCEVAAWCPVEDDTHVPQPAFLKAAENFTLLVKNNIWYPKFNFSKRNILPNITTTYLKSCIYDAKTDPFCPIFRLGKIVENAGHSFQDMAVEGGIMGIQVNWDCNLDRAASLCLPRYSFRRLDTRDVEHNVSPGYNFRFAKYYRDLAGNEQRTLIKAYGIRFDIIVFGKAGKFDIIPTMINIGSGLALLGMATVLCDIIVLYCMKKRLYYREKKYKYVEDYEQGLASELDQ
# mouse P2X4 [3] = molecular target: T1, mouse P2X4; experiment: Intracellular Ca2+ assay (Fura-2, FlexStation 3), agonist responses in 1321N1 cells stably expressing mouse P2X4; assay type: cell-based; details: for Emax: 1321-N1, read-out: Efficacy Mouse (maximal response to ligand as a percentage of maximal response to ATP); for EC50: 1321N1 cells expressing mouse P2X4, peak Ca2+ response
# human P2X4 [4] = molecular target: T2, human P2X4; experiment: Intracellular Ca2+ assay (Fura-2, FlexStation 3), agonist responses in 1321N1 cells stably expressing human P2X4; assay type: cell-based; details: for Emax: 1321-N1, read-out: Efficacy Human (maximal response to ligand as a percentage of maximal response to ATP)
# human P2X4 [5] = molecular target: T2, human P2X4; details: cited from earlier work
# mouse P2X4 [6] = molecular target: T1, mouse P2X4; details: cited from earlier work
# [7] = 30 µM antagonist, vs 1.5 µM ATP
# [8] = 1321N1 cells expressing human P2X4, peak Ca2+ response, read-out: EC50 Human
# [9] = 10 µM antagonist, vs 1.5 µM ATP
# [10] = 100 µM antagonist, vs 1.5 µM ATP
# [11] = 20 µM antagonist, vs 1.5 µM ATP
smiles,measurement,setting,value
"O=C1CN=C(c2cccc(Br)c2)c2oc3ccccc3c2N1 [5-BDBD, 5-(3-Bromophenyl)-1,3-dihydro-2H-benzofuro[3,2-e]-1,4-diazepin-2-one]",% inhibition Mouse,mouse P2X4 [1]; [7],10 ± 8% (30 µM)
same,Antagonist action at mouse P2X4 (in words),mouse P2X4 [1]; up to 100 µM,insensitive
same,Antagonist action at mouse P2X4 (in words),mouse P2X4 [1]; vs 1.5 µM ATP,not antagonised; also recorded: not an antagonist
same,Antagonist action at rat P2X4 (literature),rat P2X4; ref 37,sensitivity
same,% inhibition Human,human P2X4 [2]; [7],97 ± 3% (30 µM)
same,Antagonist action at human P2X4 (in words),human P2X4 [2]; vs 1.5 µM ATP,completely inhibit
"Nc1ncnc2c1ncn2C1OC(COP(=O)(O)OP(=O)(O)OP(=O)(O)O)C(OC(=O)c2ccc(C(=O)c3ccccc3)cc2)C1O (stereo not drawn) [BzATP, 2′(3′)-O-(4-Benzoylbenzoyl)adenosine 5′-triphosphate]",Emax,mouse P2X4 [3],27 ± 2%
same,EC50,mouse P2X4 [3],24 ± 16 µM
same,Agonist action at mouse P2X4 (in words),mouse P2X4 [3]; mouse P2X4,partial agonist
same,Emax,human P2X4 [4],35 ± 4%
same,EC50,human P2X4 [4]; [8],11 ± 2 µM
same,Agonist action at human P2X4 (in words),human P2X4 [4]; human P2X4,partial agonist
"Nc1ncnc2c1ncn2[C@@H]1O[C@H](COP(=O)(O)OP(=O)(O)OP(=O)(O)O)[C@@H](O)[C@H]1O [ATP, adenosine 5′-triphosphate]",EC50,mouse P2X4 [3],0.565 ± 0.085 µM
same,EC50,human P2X4 [4]; [8],0.747 ± 0.18 µM
same,EC80,human P2X4 [4]; human P2X4,1.5 ± 0.3 µM
"CC(C)c1cc(Br)c(NC(=O)Nc2cccnc2)c(Br)c1 [BX-430, 1-(2,6-Dibromo-4-isopropyl-phenyl)-3-(3-pyridyl)urea]",% inhibition Mouse,mouse P2X4 [1]; [9],0 ± 3% (10 µM)
same,Antagonist action at mouse P2X4 (in words),mouse P2X4 [1]; up to 100 µM,insensitive
same,Antagonist action at mouse P2X4 (in words),mouse P2X4 [1]; vs 1.5 µM ATP,not antagonised
same,% inhibition Human,human P2X4 [2]; [9],96 ± 3% (10 µM)
same,Antagonist action at human P2X4 (in words),human P2X4 [2]; vs 1.5 µM ATP,abolished receptor activity
"Cc1nc(/N=N/c2ccc(S(=O)(=O)O)cc2S(=O)(=O)O)c(COP(=O)(O)O)c(C=O)c1O [PPADS, Pyridoxalphosphate-6-azophenyl-2′,4′-disulfonic acid]",% inhibition Mouse,mouse P2X4 [1]; [10],87 ± 16%(100 µM)
same,% inhibition Human,human P2X4 [2]; [10],98 ± 3% (100 µM)
same,Antagonist action at human P2X4 (literature),human P2X4 [5]; ref 16-18,inhibit the human P2X4 receptor fully
"NS(=O)(=O)c1cc(NC(=O)Cc2ccccc2)ccc1Oc1cccc(Cl)c1 [BAY-1797, N-[4-(3-Chlorophenoxy)-3-sulfamoylphenyl]-2-phenylacetamide]",% inhibition Mouse,mouse P2X4 [1]; [9],99 ± 2% (10 µM)
"Nc1ccn([C@@H]2O[C@H](COP(=O)(O)OP(=O)(O)OP(=O)(O)O)[C@@H](O)[C@H]2O)c(=O)n1 [CTP, Cytidine 5′-triphosphate]",Emax,mouse P2X4 [3],89 ± 5%
same,Agonist action at mouse P2X4 (in words),mouse P2X4 [3]; mouse P2X4,full agonist
same,Emax,human P2X4 [4],67 ± 6%
same,Agonist action at human P2X4 (in words),human P2X4 [4]; human P2X4,partial agonist
"CSc1nc(N)c2ncn([C@@H]3O[C@H](COP(=O)(O)OP(=O)(O)OP(=O)(O)O)[C@@H](O)[C@H]3O)c2n1 [2-MeSATP, 2-(Methylthio)adenosine 5′-triphosphate]",Emax,mouse P2X4 [3],65 ± 2%
same,EC50,mouse P2X4 [3],8 ± 2 µM
same,Agonist action at mouse P2X4 (in words),mouse P2X4 [3]; mouse P2X4,partial agonist
same,Emax,human P2X4 [4],57 ± 6%
same,EC50,human P2X4 [4]; [8],2 ± 0.2 µM
same,Agonist action at human P2X4 (in words),human P2X4 [4]; human P2X4,partial agonist
"Nc1ncnc2c1ncn2[C@@H]1O[C@H](COP(=O)(O)OP(=O)(O)OP(=O)(O)OP(=O)(O)OC[C@H]2O[C@@H](n3cnc4c(N)ncnc43)[C@H](O)[C@@H]2O)[C@@H](O)[C@H]1O [Ap4A, Diadenosine tetraphosphate]",Agonist action at mouse P2X4 (in words),mouse P2X4 [3]; mouse P2X4,not an agonist
same,Agonist action at mouse P2X4 (in words),mouse P2X4 [3]; tested up to 1 mM,did not activate
same,Agonist action at human P2X4 (in words),human P2X4 [4]; tested up to 1 mM,did not activate
same,Agonist action at mouse P2X4 (literature),mouse P2X4 [6]; ref 17,activates mouse P2X4 at low micromolar concentrations
same,Agonist action at mouse P2X4 (literature),mouse P2X4 [6]; ref 35,insensitive
same,Agonist potency at rat P2X4 (literature),rat P2X4; ref 36,equipotent with ATP
same,Agonist action at human P2X4 (literature),"human P2X4 [5]; ref 35, ref 17",activation of human P2X4 by Ap4A at nanomolar concentrations
"C#CCNP(=O)(O)OP(=O)(O)OP(=O)(O)OCC1OC(n2cnc3c(N)ncnc32)C(O)C1O (stereo not drawn) [γ-[(Propargyl)-imido]-ATP, Adenosine-5′-[γ-(propargyl)-imido]triphosphate]",Emax,mouse P2X4 [3],90 ± 11%
same,EC50,mouse P2X4 [3],20 ± 2 µM
same,Agonist action at mouse P2X4 (in words),mouse P2X4 [3]; mouse P2X4,full agonist
same,Emax,human P2X4 [4],85 ± 5%
same,EC50,human P2X4 [4]; [8],20 ± 2 µM
same,Agonist action at human P2X4 (in words),human P2X4 [4]; human P2X4,partial agonism
"Nc1ncnc2c1ncn2C1OC(COP(=O)(O)CP(=O)(O)OP(=O)(O)O)C(O)C1O (stereo not drawn) [α,β-meATP, α,β-Methyleneadenosine 5′-triphosphate]",Emax,mouse P2X4 [3],5 ± 2%
same,Agonist action at mouse P2X4 (in words),mouse P2X4 [3]; mouse P2X4,no significant effect
same,EC50,human P2X4 [4],7 ± 0.7 µM
same,Emax,human P2X4 [4],15 ± 2%
same,Agonist action at human P2X4 (in words),human P2X4 [4]; human P2X4,can be activated; also recorded: weak partial agonist
"Cc1ccc(C(=O)Nc2ccc(S(=O)(=O)O)c3cc(S(=O)(=O)O)cc(S(=O)(=O)O)c23)cc1NC(=O)c1cccc(NC(=O)Nc2cccc(C(=O)Nc3cc(C(=O)Nc4ccc(S(=O)(=O)O)c5cc(S(=O)(=O)O)cc(S(=O)(=O)O)c45)ccc3C)c2)c1 [suramin, 8,8′-{Carbonylbis[imino-3,1-phenylenecarbonylimino(4-methyl-3,1-phenylene)carbonylimino]}di(1,3,5-naphthalenetrisulfonic acid)]",Antagonist action at mouse P2X4 (in words),mouse P2X4 [1]; up to 100 µM,completely insensitive
same,Antagonist action at human P2X4 (in words),human P2X4 [2]; up to 100 µM,completely insensitive
"Nc1ncnc2c1ncn2[C@@H]1O[C@H](COP(=O)(O)OP(=O)(O)OP(=O)(O)O)[C@H]2OC3(O[C@H]21)C([N+](=O)[O-])=CC(=[N+]([O-])[O-])C=C3[N+](=O)[O-] (stereo partly drawn) [TNP-ATP, 2′,3′-O-(2,4,6-Trinitrophenyl)-ATP]",IC50,mouse P2X4 [1],93 ± 4 µM
same,% inhibition Mouse,mouse P2X4 [1]; [10],43 ± 7% (100 µM)
same,Antagonist action at human P2X4 (in words),human P2X4 [2],completely inhibited
same,% inhibition Human,human P2X4 [2]; [10],94 ± 1% (100 µM)
"Nc1ncnc2c1ncn2[C@@H]1O[C@H](CO[P@](=O)(O)O[P@](=O)(O)O[P@@](=O)(O)S)[C@@H](O)[C@H]1O [ATPγS, Adenosine-5′-O-(3-thio-triphosphate)]",Emax,mouse P2X4 [3],45 ± 4%
same,EC50,mouse P2X4 [3],18 ± 1 µM
same,Agonist action at mouse P2X4 (in words),mouse P2X4 [3]; mouse P2X4,partial agonist
same,Emax,human P2X4 [4],9 ± 3%
same,Agonist action at human P2X4 (in words),human P2X4 [4]; human P2X4,did not activate; also recorded: not activated
same,Agonist action at human P2X4 (in words),human P2X4 [4]; up to 300 µM,does not activate
same,Agonist action at human P2X4 (literature),human P2X4 [5]; ref 33,partial agonism
"Cc1ccc(S(=O)(=O)N2c3ccccc3Oc3ccccc32)cc1 [PSB-12062, N-(p-methylphenylsulfonyl)phenoxazine]",% inhibition Mouse,mouse P2X4 [1]; [11],59 ± 7% (20 µM)
same,IC50,mouse P2X4 [1]; read-out: IC50 Mouse,3 ± 2 µM
same,% inhibition Human,human P2X4 [2]; [11],99 ± 4% (20 µM)
same,Antagonist action at human P2X4 (in words),human P2X4 [2]; vs 1.5 µM ATP,abolished activity
